Source: US11447533B2, “Antimicrobial and anticancer peptides and conjugates and compositions, methods, articles and kits relating thereto” (George Mason Research Foundation, Inc., priority 2018, dated 2022)

What was measured:
B. cereus ATCC 11778 = assay: Antimicrobial efficacy (resazurin virtual colony count); format: cell-based, Bacillus cereus; conditions: DPBS
Description: Antimicrobial Studies. The phosphate buffers used for antimicrobial assays were supplemented with non-nitrogenous energy source, 0.1% (w/v) glucose. To conduct antimicrobial assays, bacterial strains were first suspended in respective buffers. E. coli (ATCC 25922) and B. cereus (ATCC 11778) were grown in MHB II up to OD600 nm˜1 and stored as frozen stock in 20% glycerol at −80° C. Occasionally they were thawed and enumerated by serial dilution and spreading on MHB II agar plates. The concentrations of the frozen stocks of E. coli and B. cereus strains were 1.0-1.1*10^8 CFU/mL with OD600 nm˜0.8. In case of other bacterial strains, they were grown on the days of experiment up to OD600 nm˜1-1.5 and then adjusted to OD600 nm˜0.8. The growth media of the drug-resistant bacterial strains were supplemented with few of the respective antibiotics against which they are resistant. […]
Antimicrobial assays in different phosphate buffers and serum were conducted by adapting, with necessary modifications a fast high-throughput method based on Virtual Colony Count technique and later modified by incorporating the use of resazurin. At first serial dilution of a microbial strain in respective buffer was poured in the wells of 96 well polypropylene microplate and was then added with same volume of 2× MHB II supplemented with 80 μg/mL resazurin and incubated at 35° C. in a Gemini EM Microplate Reader (Molecular Devices) overnight with intermittent shaking. As the microbe grows it reduces non-fluorescent resazurin to fluorescent resorufin and the fluorescent intensity of each well were measured (excitation=570 nm, emission=590 nm) each 5 min for 15 hours. The time (t, min) to reach a certain fluorescence (RFU=20000 with respect to the starting fluorescence) was correlated with the initial bacterial concentration (in CFU/mL) in the particular well to obtain a calibration plot of the form: Log([Bacteria],CFU/mL)=b+m*t Equation 4: […]

[1] = system: E. coli ML35p inner membrane; assay: Inner membrane disruption (β-galactosidase leakage, ONPG); format: cell-based, Escherichia coli
Description: Interactions with Bacterial Membranes. Interaction of the peptides with bacterial membranes in different phosphate buffers were evaluated using E. coli ML35p, constructed in our laboratory. At first, competent cells of E. coli ML35 were produced by conventional competent cell preparation method, then transformed with pBR322 plasmid. Transformed colonies were selected after growing on Luria-agar containing 50 μg/mL ampicillin. A single transformed colony was grown in presence of ampicillin first in Luria broth and then in MHBII and stored as 20% glycerol stock at −80° C. This frozen stock, on the day of the experiment, was thawed and grown in MHBII containing ampicillin up to OD600 nm=0.8-0.9, washed with PBS and then suspended in the respective buffer up to the required OD600 nm for use.
Membrane Disruptions. The outer and the inner membrane disruptions by the peptides were evaluated by incubating bacterial suspension with peptides and then measuring the activity of enzymes leaked out of the cells. 100 μL of 10× concentration of peptide in water was incubated with 900 μL bacterial suspension (OD600 nm˜0.1) in respective buffer for 3 hours at room temperature with gentle rotation. […]
The inner membrane disruption was tested by using the activity of β-galactosidase present in the […] of E. coli ML35p, which lacks lactose-permease. Peptides when disrupt the inner membrane enough to cause β-galactosidase to come out, the degree of disruption can be measured by the virtue of the kinetics of the enzyme and using a substrate called ortho-Nitrophenyl-β-galactoside (ONPG). β-galactosidase mediated hydrolyzed product of ONPG has an absorbance λmax=420 nm. Supernatant collected from the incubation of peptide with bacteria was added with ONPG solution in DPBS and incubated at 35° C. and continuous absorbance readings. The slope of the linear section of the absorbance curve (absorbance vs time), was used as a measure of membrane disruption and the % Disruption was calculated as: Equation 8: […]

Sequence | antimicrobial efficacy, in words (B. cereus ATCC 11778) | inner membrane disruption relative to HCMAB ([1]; 10 mM phosphate buffer) | inner membrane disruption relative to HCMAB ([1]; DPBS, HCMAB = 100%)
KRAKKFFKKLK (SEQ ID NO: 4) [ATRA1-A] | not effective |  | 
KRFKKFFKKLK (SEQ ID NO: 2) [ATRA1, first 11 residues of NA-CATH] | somewhat effective | highest | below 10%
RRWKRFFKRWK (SEQ ID NO: 15) [ATRA1-R3W2] |  |  | highest degree of inner membrane disruption
